# Source: patent US11535632B2, “Solid forms of an S1P-receptor modulator” (ESCAPE Bio, Inc., priority 2019, dated 2022)
# Where two headings read alike, the source gives them in different places.
# What was measured:
# Format in all cases: physicochemical
# [1] = Solubility and metastable zone width by Crystal 16; details: damp material isolated from DMAC, dried
# Method: A Crystal 16 crystallization system (Technobis, NL) was used to determine the solubility and metastable zone of the material as a function of temperature. Slurries of the API, in different overall concentrations, were prepared by adding a known amount of solid to a known amount of chilled solvent (between 0.5 and 1.5 ml) and stirred at 350 rpm using a magnetic bar. The saturation temperature was measured through cycles of heating and cooling from 20 to 90° C. at 0.5° C./min.
# Upon increasing the temperature, the solid completely dissolved and the suspension became a clear solution such that the light transmission reached its maximum value. This temperature was assigned as the clear point, which was assumed to coincide with the saturation temperature. Then, by cooling the solution at a rate of 0.5° C./min, the temperature at which particles first formed was detected by a decrease in the light transmission. This was assigned as the cloud point. The points were fitted by a Van′t Hoff equation and the difference between the cloud and the clear points defined the metastable zone width (MSZW) of the system. The instrument control software was Crystallization Systems and the data were analyzed using Crystal Clear and Microsoft Excel.
# The solubility of compound 1 (various masses) in DMAC and DMSO (1 ml) was analyzed on the Crystal 16 (between 25-90° C. for DMSO and 0-90° C. for DMAC). A heating/cooling rate of 0.5° C./min and a stirring rate of 300 rpm was used for all samples. The resulting turbidity/temperature plots were analyzed to obtain solubility curves and determine the metastable zone width. Any precipitated solids were isolated by filtration and analyzed by XRPD.
# [2] = Room temperature equilibrium solubility in aqueous suspensions; details: listed as Compound 1, Form A; for Total drug in solution: room temperature equilibrium, HPLC of supernatant
# [3] = Hygroscopicity evaluation by DVS at 25° C.
# Method: Hygroscopicity of Compound 1, Form A and Compound 1, Form B was evaluated by DVS at 25° C.
# [4] = Competitive slurries of Form B and C in process relevant solvents; details: 90° C. in DMSO
# Method: Determination of the relative stabilities of Form B and Form C was undertaken to identify which material was more thermodynamically stable in process relevant solvents. As a suspected solvate was isolated from experiments where DMAC was used as a solvent, only DMSO and acetic acid were determined to be appropriate process solvents. Combinations of these solvents with relevant antisolvents were therefore selected for the competitive slurry experiments.
# Compound 1 (from Example 2) was dispensed into HPLC vials. To these, 1 ml of selected solvents was subsequently added to give a suspension. Materials were slurried for 72 hours at 90° C., 50° C. or 25° C. with 500 rpm stirring. Material was subsequently isolated by centrifugation and analyzed by XRPD.
# [5] = Solid state stability study
# From the text: The two lots of Compound 1 were characterized by HPLC, PLM, XRPD, DSC, TGA, and KF. […] According to the stability study at different conditions, the two forms of compound were practically stable at different humidity for at least 4 weeks, with no XRPD pattern change and no growth of impurities were found.
compound,measurement,setting,value
"O=C(O)[C@H]1C[C@@H](N2CCc3oc(-c4ccc(OCc5ccc(Cl)cc5)cc4)nc3C2)C1 [Form D, (1s,3s)-3-(2-(4-((4-chlorobenzyl)oxy)phenyl)-6,7-dihydrooxazolo[4,5-c]pyridin-5(4H)-yl)cyclobutane-1-carboxylic acid]",Form change upon drying (XRPD),[1],converted to Form C
"O=C(O)[C@H]1C[C@@H](N2CCc3oc(-c4ccc(OCc5ccc(Cl)cc5)cc4)nc3C2)C1 [Form A, (1s,3s)-3-(2-(4-((4-chlorobenzyl)oxy)phenyl)-6,7-dihydrooxazolo[4,5-c]pyridin-5(4H)-yl)cyclobutane-1-carboxylic acid]",Total drug in solution,[2]; 0.2% HPMC aqueous suspension,1.3 µg/mL
same,pH,[2]; 0.2% HPMC aqueous suspension,7.2
same,Total drug in solution,[2]; 0.25% SLS aqueous suspension,23.7 µg/mL
same,pH,[2]; 0.25% SLS aqueous suspension,6.9
same,Total drug in solution,[2]; 20% HP-BCD aqueous suspension,446.5 µg/mL
same,pH,[2]; 20% HP-BCD aqueous suspension,5.7
same,XRPD after DVS test,[3],No form change but crystallinity
same,DVS Desorp. (%),"[3]; 0% RH, 1st Desorp.",0.00%
same,DVS Sorp. (%),"[3]; 0% RH, 1st Sorp.",0.00%
same,DVS Desorp. (%),"[3]; 0% RH, 2nd Desorp.",0.00%
same,DVS Sorp. (%),"[3]; 0% RH, 2nd Sorp.",0.00%
same,DVS Desorp. (%),"[3]; 10% RH, 1st Desorp.",0.01%
same,DVS Sorp. (%),"[3]; 10% RH, 1st Sorp.",0.00%
same,DVS Desorp. (%),"[3]; 10% RH, 2nd Desorp.",0.01%
same,DVS Sorp. (%),"[3]; 10% RH, 2nd Sorp.",0.00%
same,DVS Desorp. (%),"[3]; 20% RH, 1st Desorp.",0.01%
same,DVS Sorp. (%),"[3]; 20% RH, 1st Sorp.",−0.01%
same,DVS Desorp. (%),"[3]; 20% RH, 2nd Desorp.",0.01%
same,DVS Sorp. (%),"[3]; 20% RH, 2nd Sorp.",0.00%
same,DVS Desorp. (%),"[3]; 30% RH, 1st Desorp.",0.02%
same,DVS Sorp. (%),"[3]; 30% RH, 1st Sorp.",0.00%
same,DVS Desorp. (%),"[3]; 30% RH, 2nd Desorp.",0.02%
same,DVS Sorp. (%),"[3]; 30% RH, 2nd Sorp.",0.01%
same,DVS Desorp. (%),"[3]; 40% RH, 1st Desorp.",0.02%
same,DVS Sorp. (%),"[3]; 40% RH, 1st Sorp.",0.00%
same,DVS Desorp. (%),"[3]; 40% RH, 2nd Desorp.",0.02%
same,DVS Sorp. (%),"[3]; 40% RH, 2nd Sorp.",0.01%
same,DVS Sorp. (%),"[3]; 50% RH, 1st Sorp.",0.01%
same,DVS Desorp. (%),"[3]; 50% RH, 2nd Desorp.",0.03%
same,DVS Sorp. (%),"[3]; 60% RH, 1st Sorp.",0.01%
same,DVS Desorp. (%),"[3]; 60% RH, 2nd Desorp.",0.03%
same,DVS Sorp. (%),"[3]; 70% RH, 1st Sorp.",0.02%
same,DVS Desorp. (%),"[3]; 70% RH, 2nd Desorp.",0.04%
same,DVS Sorp. (%),"[3]; 80% RH, 1st Sorp.",0.02%
same,DVS Desorp. (%),"[3]; 80% RH, 2nd Desorp.",0.04%
same,DVS Sorp. (%),"[3]; 90% RH, 1st Sorp.",0.03%
same,DVS Desorp. (%),"[3]; 90% RH, 2nd Desorp.",0.04%
same,DVS Sorp. (%),"[3]; 95% RH, 1st Sorp.",0.01%
same,DVS Desorp. (%),"[3]; 95% RH, 2nd Desorp.",0.01%
same,Hygroscopicity based on DVS results,"[3]; listed as Compound 1, Form A",non-hygroscopic
same,XRPD after DVS test,"[3]; listed as Compound 1, Form A",no form change but crystallinity decreased and peaks became broad
same,Relative thermodynamic stability,[4],most thermodynamically stable polymorph
same,Crystallinity (XRPD & PLM),"[5]; 4 weeks, 25° C./60% RH",Crystalline
same,Purity,"[5]; 4 weeks, 25° C./60% RH",99.48%
same,Weight loss (TGA) (~120° C.),"[5]; 4 weeks, 25° C./60% RH",0.981%
same,Crystallinity (XRPD & PLM),"[5]; 4 weeks, 40° C./75% RH",Crystalline
same,Purity,"[5]; 4 weeks, 40° C./75% RH",99.46%
same,Weight loss (TGA) (~120° C.),"[5]; 4 weeks, 40° C./75% RH",0.884%
same,Crystallinity (XRPD & PLM),"[5]; 6 weeks, 25° C./60% RH",Crystalline
same,Purity,"[5]; 6 weeks, 25° C./60% RH",99.54%
same,Water content,"[5]; 6 weeks, 25° C./60% RH",0.784%
same,Weight loss (TGA) (~120° C.),"[5]; 6 weeks, 25° C./60% RH",0.831%
same,Crystallinity (XRPD & PLM),"[5]; 6 weeks, 40° C./75% RH",Crystalline
same,Purity,"[5]; 6 weeks, 40° C./75% RH",99.47%
same,Water content,"[5]; 6 weeks, 40° C./75% RH",0.547%
same,Weight loss (TGA) (~120° C.),"[5]; 6 weeks, 40° C./75% RH",0.739%
same,Crystallinity (XRPD & PLM),"[5]; 8 weeks, 25° C./60% RH",Crystalline
same,Purity,"[5]; 8 weeks, 25° C./60% RH",99.51%
same,Water content,"[5]; 8 weeks, 25° C./60% RH",0.559%
same,Weight loss (TGA) (~120° C.),"[5]; 8 weeks, 25° C./60% RH",0.946%
same,Crystallinity (XRPD & PLM),"[5]; 8 weeks, 40° C./75% RH",Crystalline
same,Purity,"[5]; 8 weeks, 40° C./75% RH",99.53%
same,Water content,"[5]; 8 weeks, 40° C./75% RH",0.608%
same,Weight loss (TGA) (~120° C.),"[5]; 8 weeks, 40° C./75% RH",0.801%
same,Crystallinity (XRPD & PLM),[5]; Initial,Crystalline
same,Purity,[5]; Initial,99.46%
same,Water content,[5]; Initial,0.513%
same,Weight loss (TGA) (~120° C.),[5]; Initial,0.722%
